Laboratory results taken from patent US20230365559A1, “NOVEL AMINOPYRIDINES AND THEIR USE IN TREATING CANCER” (priority 2020, published 2023).
“And” between values parts separate entries of the source, which are not always exact repeats. Identical values can stand only once. Like-named read-outs stand apart in the source and are kept apart here.

Columns and labels:
Ser2056 of DNA-PKcs = Ser2056 of DNA-PKcs (Homo sapiens, UniProt P78527); test: Inhibition of cellular autophosphorylation at Ser2056 of DNA-PKcs in UT-SCC-54C cells, western immunoblotting; format: cell-based; settings: for inhibition of Ser2056 on DNA-PKcs: oxia, FIG. 7 (10 μM)
[1] = target: T1, Ser1981 of ataxia-telangiectasia mutated (ATM) (Homo sapiens, UniProt Q13315); test: Inhibition of phosphorylation of Ser1981 of ATM in UT-SCC-54C cells, western immunoblotting; format: cell-based; settings: oxia, 10 Gy, FIG. 7 (10 μM)
T1 construct: Ser1981 of ataxia-telangiectasia mutated (ATM) in UT-SCC-54C cells

ATR/ATRIP = ATR/ATRIP (Homo sapiens, UniProt Q13535); test: ATR/ATRIP Human PIKK Kinase Enzymatic Radiometric Assay, KinaseProfiler (Eurofins Discovery); format: biochemical; settings: Km ATP, Table 15, read-out: Inhibition of PIKK kinase activity ATR
Chain of ATR/ATRIP (Q13535 whole entry): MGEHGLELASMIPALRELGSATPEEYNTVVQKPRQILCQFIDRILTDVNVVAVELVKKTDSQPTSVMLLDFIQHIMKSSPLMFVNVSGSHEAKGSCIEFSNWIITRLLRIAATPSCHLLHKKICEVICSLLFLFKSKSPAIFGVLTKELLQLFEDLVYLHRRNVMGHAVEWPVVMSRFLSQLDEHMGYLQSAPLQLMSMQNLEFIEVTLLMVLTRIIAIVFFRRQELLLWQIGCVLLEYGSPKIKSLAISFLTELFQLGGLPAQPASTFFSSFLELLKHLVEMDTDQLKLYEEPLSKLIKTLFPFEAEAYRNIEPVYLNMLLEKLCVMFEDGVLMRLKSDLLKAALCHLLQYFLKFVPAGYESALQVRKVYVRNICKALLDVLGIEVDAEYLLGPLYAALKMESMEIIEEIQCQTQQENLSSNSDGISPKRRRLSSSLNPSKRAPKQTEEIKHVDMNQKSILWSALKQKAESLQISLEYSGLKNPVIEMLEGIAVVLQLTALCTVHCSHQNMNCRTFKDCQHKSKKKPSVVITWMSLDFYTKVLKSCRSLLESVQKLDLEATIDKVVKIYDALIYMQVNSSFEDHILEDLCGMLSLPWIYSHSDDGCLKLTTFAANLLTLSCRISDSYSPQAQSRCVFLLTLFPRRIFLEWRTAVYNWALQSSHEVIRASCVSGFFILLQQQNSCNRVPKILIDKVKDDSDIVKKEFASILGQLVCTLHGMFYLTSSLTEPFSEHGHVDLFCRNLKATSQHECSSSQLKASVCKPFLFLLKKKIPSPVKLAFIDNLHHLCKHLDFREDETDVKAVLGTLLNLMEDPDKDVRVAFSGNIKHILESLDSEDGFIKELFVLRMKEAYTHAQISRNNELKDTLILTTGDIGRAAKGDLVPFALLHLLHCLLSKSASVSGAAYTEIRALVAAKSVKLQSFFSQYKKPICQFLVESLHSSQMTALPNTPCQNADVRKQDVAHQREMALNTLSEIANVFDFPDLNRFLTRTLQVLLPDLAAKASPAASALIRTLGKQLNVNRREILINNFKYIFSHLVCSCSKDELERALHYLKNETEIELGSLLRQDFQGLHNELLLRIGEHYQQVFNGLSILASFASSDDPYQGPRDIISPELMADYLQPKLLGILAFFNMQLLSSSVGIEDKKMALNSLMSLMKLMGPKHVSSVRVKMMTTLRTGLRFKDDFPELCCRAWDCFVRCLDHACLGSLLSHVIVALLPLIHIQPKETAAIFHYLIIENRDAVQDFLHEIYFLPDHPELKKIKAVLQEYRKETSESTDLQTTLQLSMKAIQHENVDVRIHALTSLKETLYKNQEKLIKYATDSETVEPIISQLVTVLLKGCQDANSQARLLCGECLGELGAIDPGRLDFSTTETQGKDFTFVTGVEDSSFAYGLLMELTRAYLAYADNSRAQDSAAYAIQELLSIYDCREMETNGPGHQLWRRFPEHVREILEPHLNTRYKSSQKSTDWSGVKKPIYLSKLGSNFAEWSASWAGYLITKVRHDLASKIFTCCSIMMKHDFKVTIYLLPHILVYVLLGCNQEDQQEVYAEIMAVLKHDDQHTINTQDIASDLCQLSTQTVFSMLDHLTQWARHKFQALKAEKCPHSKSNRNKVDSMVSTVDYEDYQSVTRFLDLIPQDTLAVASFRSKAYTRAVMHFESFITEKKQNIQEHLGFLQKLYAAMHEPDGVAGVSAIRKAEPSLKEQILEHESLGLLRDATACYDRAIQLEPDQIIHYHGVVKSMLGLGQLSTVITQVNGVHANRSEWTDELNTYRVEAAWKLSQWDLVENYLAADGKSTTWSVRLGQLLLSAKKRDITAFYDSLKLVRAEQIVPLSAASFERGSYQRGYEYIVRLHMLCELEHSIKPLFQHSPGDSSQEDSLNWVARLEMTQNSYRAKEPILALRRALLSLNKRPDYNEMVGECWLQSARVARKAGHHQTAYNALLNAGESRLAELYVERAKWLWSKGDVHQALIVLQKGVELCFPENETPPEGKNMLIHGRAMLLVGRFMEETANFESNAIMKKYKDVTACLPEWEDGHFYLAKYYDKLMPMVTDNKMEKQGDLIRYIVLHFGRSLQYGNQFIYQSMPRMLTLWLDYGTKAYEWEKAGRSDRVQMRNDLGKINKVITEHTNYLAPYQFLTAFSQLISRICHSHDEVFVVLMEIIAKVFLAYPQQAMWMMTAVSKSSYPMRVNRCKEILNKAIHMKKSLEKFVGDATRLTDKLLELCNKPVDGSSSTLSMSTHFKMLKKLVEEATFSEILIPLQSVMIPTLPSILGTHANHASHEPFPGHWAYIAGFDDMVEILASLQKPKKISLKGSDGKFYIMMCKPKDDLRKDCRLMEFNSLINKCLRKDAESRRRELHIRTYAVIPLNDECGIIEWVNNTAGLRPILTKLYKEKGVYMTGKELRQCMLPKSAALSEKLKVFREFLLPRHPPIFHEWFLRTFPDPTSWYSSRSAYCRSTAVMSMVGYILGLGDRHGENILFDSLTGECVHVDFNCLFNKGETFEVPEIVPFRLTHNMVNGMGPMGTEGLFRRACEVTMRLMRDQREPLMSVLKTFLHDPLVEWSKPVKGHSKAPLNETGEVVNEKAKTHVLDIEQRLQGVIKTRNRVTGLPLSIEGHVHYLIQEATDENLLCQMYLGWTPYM
Chain of ATR/ATRIP (Q8WXE1 whole entry partner): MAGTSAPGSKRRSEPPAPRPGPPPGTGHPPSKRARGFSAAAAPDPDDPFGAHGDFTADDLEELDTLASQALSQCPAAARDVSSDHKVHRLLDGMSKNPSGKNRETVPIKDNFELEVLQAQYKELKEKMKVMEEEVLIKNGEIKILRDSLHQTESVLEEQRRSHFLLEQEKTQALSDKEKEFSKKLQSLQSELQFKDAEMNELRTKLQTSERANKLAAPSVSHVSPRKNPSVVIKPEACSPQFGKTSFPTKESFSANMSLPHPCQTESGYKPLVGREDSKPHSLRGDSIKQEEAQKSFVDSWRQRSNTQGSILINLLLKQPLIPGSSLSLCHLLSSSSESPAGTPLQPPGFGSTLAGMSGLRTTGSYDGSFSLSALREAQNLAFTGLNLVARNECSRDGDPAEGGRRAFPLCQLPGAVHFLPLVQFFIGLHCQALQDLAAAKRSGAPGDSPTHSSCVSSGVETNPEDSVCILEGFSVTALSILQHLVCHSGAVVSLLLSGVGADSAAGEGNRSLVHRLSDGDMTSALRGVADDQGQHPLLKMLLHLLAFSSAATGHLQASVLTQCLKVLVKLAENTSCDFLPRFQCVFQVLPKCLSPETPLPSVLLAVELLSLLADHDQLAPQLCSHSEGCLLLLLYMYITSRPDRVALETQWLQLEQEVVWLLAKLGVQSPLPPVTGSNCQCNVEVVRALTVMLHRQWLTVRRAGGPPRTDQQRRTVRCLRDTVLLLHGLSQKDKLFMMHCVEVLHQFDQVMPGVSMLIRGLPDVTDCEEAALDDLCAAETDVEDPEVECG

UT-SCC-54C cells [2] = test: Radiosensitisation of UT-SCC-54C HNSCC cells, regrowth (sulforhodamine B) assay, oxic (Table 16); format: cell-based, human; settings: for S50: compound in combination with 3 Gy of radiation, 50% inhibition of regrowth fraction, UT-SCC-54C; for S50 / radiosensitisation / differential growth inhibition of UT-SCC-54C cells: oxic; for IC50: Homo sapiens, read-out: IC50; for radiosensitisation / differential growth inhibition of UT-SCC-54C cells: 0 or 3 Gy, regrowth assay
HAP1 cells = test: Radiosensitisation of HAP1 wild type cells, regrowth assay; format: cell-based, human; settings: for radiosensitisation / differential growth inhibition of HAP1 cells: 3 Gy cobalt-60 gamma irradiation relative to radiation-only; for IC50: Homo sapiens, HAP1, read-out: HAP1 wt IC50
UT-SCC-54C cells [3] = test: Radiosensitisation of UT-SCC-54C HNSCC cells, clonogenic survival, oxic and anoxic (Table 18); format: cell-based, human; settings: for radiosensitisation of UT-SCC-54C cells under oxic conditions / SER (sensitiser enhancement ratio): clonogenic survival; for radiosensitisation of UT-SCC-54C cells under oxic conditions: FIG. 9; for Plating efficiency drug/no drug: no radiation; for SER (sensitiser enhancement ratio): anoxic conditions, FIG. 10
[4] = system: UT-SCC-54C tumour xenografts; test: Radiosensitisation of UT-SCC-54C HNSCC tumours, ex vivo clonogenic assay of tumour xenografts; format: in vivo, female NIH-III mice; settings: for reduction in clonogens/gram of tumour, compound with radiation compared to radiation alone: IP 50 mg/kg 15 min before and 6 h after 13 Gy whole-body irradiation; for reduction in clonogens/gram of tumour tissue, compound alone: IP 2 x 50 mg/kg, no radiation, compared to DMSO control
[5] = system: UT-SCC-54C tumour xenografts; test: Inhibition of UT-SCC-54C tumour growth, tumour xenograft study; format: in vivo, female NIH-III mice
human DNA-PK = human DNA-PK (Homo sapiens, UniProt P78527); test: Inhibition of DNA-PKcs kinase activity, HotSpot assay (Reaction Biology), [γ-33P]-ATP phosphorylation of peptide substrate; format: biochemical
human PI3Kα (p110α/p85α) = human PI3Kα (p110α/p85α) (Homo sapiens, UniProt P42336); test: Inhibition of PI3Kα kinase activity, ADP-Glo Assay (Reaction Biology); format: biochemical; settings: 10 μM ATP; mean of two replicates; Table 12; read-out: Inhibition of kinase activity (as IC50) PICK
ATM = ATM (Homo sapiens, UniProt Q13315); test: ATM Human PIKK Kinase Enzymatic ELISA/EIA Assay, KinaseProfiler (Eurofins Discovery); format: biochemical; settings: KinaseProfiler, Km ATP; Table 15; read-out: Inhibition of PIKK kinase activity ATM
HAP1/PRKDC−/− cells = test: Radiosensitisation of DNA-PK null HAP1/PRKDC−/− cells, regrowth assay; format: cell-based, human; settings: for radiosensitisation / differential growth inhibition of DNA-PK null HAP1 line: 3 Gy, HAP1/PRKDC−/−; for IC50: Homo sapiens, HAP1
human mTOR = human mTOR (Homo sapiens, UniProt P42345); test: Inhibition of mTOR kinase activity, HotSpot assay, phosphorylation of 4EPB1
UT-SCC-54C cells [6] = test: Hypoxia-selective metabolism of prodrugs by UT-SCC-54C cells, LC-MS; settings: 10 μM, 0-3 h
[7] = 10 μM ATP, 10 μg/ml DNA, mean of two replicates, Table 12, read-out: Inhibition of kinase activity (as IC50) DNA-PK (converted)
[8] = HotSpot assay Reaction Biology Corp., Table 15, read-out: Inhibition of PIKK kinase activity DNA-PK
[9] = Inhibition of PIKK kinase activity mTOR/FRAP (nM), HotSpot assay Reaction Biology Corp., Table 15
[10] = Inhibition of kinase activity (as IC50) mTOR (nM), 10 μM ATP, mean of two replicates, Table 12

CC(C)n1c(=O)n(C)c2cnc3cc(F)c(-c4ccc(OCCCN5CCCCC5)nc4)cc3c21 [AZD1393, reference compound]
inhibition of Ser2056 on DNA-PKcs (Ser2056 of DNA-PKcs; 10 Gy): did not affect
inhibition of phosphorylation of Ser1981 on ATM [1]: inhibited

COc1ccc(Nc2cc3c(cn2)n(C)c(=O)n3C2CCOCC2)c(C)c1 [Compound 121, 6-((4-Methoxy-2-methylphenyl)amino)-3-methyl-1-(tetrahydro-2H-pyran-4-yl)-1,3-dihydro-2H-imidazo[4,5-c]pyridin-2-one]
IC50 (ATR/ATRIP): > 100 µM
S50 (UT-SCC-54C cells [2]): 0.34 µM
effect in unirradiated HAP1 cells (HAP1 cells; 0 Gy): little effect
radiosensitisation / differential growth inhibition of HAP1 cells (HAP1 cells): concentration-dependent radiosensitisation
D1 (radiation dose for 1% surviving fraction) (UT-SCC-54C cells [3]; 0% O2, compound conc 1 μM): 11.7 Gy
D10 (radiation dose for 10% surviving fraction) (UT-SCC-54C cells [3]; 0% O2, compound conc 1 μM): 6.18 Gy
D1 (radiation dose for 1% surviving fraction) (UT-SCC-54C cells [3]; 20% O2, compound conc 0.33 μM): 1.29 Gy
D10 (radiation dose for 10% surviving fraction) (UT-SCC-54C cells [3]; 20% O2, compound conc 0.33 μM): 4.63 Gy
D10 (radiation dose for 10% surviving fraction) (UT-SCC-54C cells [3]; 20% O2, compound conc 1 μM): 2.65 Gy
D1 (radiation dose for 1% surviving fraction) (UT-SCC-54C cells [3]; 20% O2, compound conc 3 μM): 3.44 Gy
D10 (radiation dose for 10% surviving fraction) (UT-SCC-54C cells [3]; 20% O2, compound conc 3 μM): 1.73 Gy
radiosensitisation, clonogenic survival endpoint (UT-SCC-54C cells [3]; UT-SCC-54C, FIG. 8 and Table 18): concentration-dependent increases in radiosensitisation
radiosensitisation of UT-SCC-54C cells under oxic conditions (UT-SCC-54C cells [3]): provides radiosensitisation
reduction in clonogens/gram of tumour, compound with radiation compared to radiation alone [4]: significant (p=0.005) additional reduction
reduction in clonogens/gram of tumour tissue, compound alone [4]: no reduction
tumour growth inhibition in combination with radiation compared to radiation alone ([5]; PO 2×100 mg/kg, 10 Gy (P=0.007)): significant tumour growth inhibition
tumour growth inhibition in combination with radiation compared to radiation alone ([5]; PO 2×400 mg/kg, 10 Gy (P=0.03)): significant tumour growth inhibition
tumour growth inhibition, compound alone ([5]; PO, compared to DMSO control, FIG. 12A): little additional tumour growth inhibition

Cc1cc(OCc2cnc([N+](=O)[O-])n2C)ccc1Nc1cc2c(cn1)n(C)c(=O)n2C1CCCC1 [Compound 234, 1-Cyclopentyl-3-methyl-6-((2-methyl-4-((1-methyl-2-nitro-1H-imidazol-5-yl)methoxy)phenyl)amino)-1,3-dihydro-2H-imidazo[4,5-c]pyridin-2-one]
IC50 (human DNA-PK; [7]): 0.766 µM
IC50 (human DNA-PK; [8]): 0.766 µM
IC50 (human PI3Kα (p110α/p85α)): 0.877 µM
IC50 (ATM): > 100 µM
IC50 (ATR/ATRIP): > 100 µM
IC50 (UT-SCC-54C cells [2]): 10.6 µM
S50 (UT-SCC-54C cells [2]): 10.9 µM
radiosensitisation / differential growth inhibition of UT-SCC-54C cells (UT-SCC-54C cells [2]): did not display any differential growth inhibition
radiosensitisation / differential growth inhibition of HAP1 cells (HAP1 cells): did not demonstrate any differential growth inhibition
IC50 (HAP1 cells): 9.74 µM
radiosensitisation / differential growth inhibition of DNA-PK null HAP1 line (HAP1/PRKDC−/− cells): did not demonstrate any differential growth inhibition
IC50 (HAP1/PRKDC−/− cells): 8.6 µM
inhibition of radiation-induced Ser2056 autophosphorylation under anoxia (Ser2056 of DNA-PKcs; anoxic, FIG. 6 (20 μM)): able to inhibit phosphorylation
inhibition of Ser2056 on DNA-PKcs (Ser2056 of DNA-PKcs; 10 Gy): did not inhibit
inhibition of Ser2056 autophosphorylation under oxia (Ser2056 of DNA-PKcs; oxic, 10 Gy, FIG. 5 (20 μM)): little inhibition
inhibition of phosphorylation of Ser1981 on ATM [1]: did not inhibit
D1 (radiation dose for 1% surviving fraction) (UT-SCC-54C cells [3]; 0% O2, compound conc 10 μM): 9.72 Gy
D10 (radiation dose for 10% surviving fraction) (UT-SCC-54C cells [3]; 0% O2, compound conc 10 μM): 6.78 Gy
SER1 (sensitiser enhancement ratio at 1% surviving fraction) (UT-SCC-54C cells [3]; 0% O2, compound conc 10 μM): 1.25
SER10 (sensitiser enhancement ratio at 10% surviving fraction) (UT-SCC-54C cells [3]; 0% O2, compound conc 10 μM): 1.79
Plating efficiency drug/no drug (UT-SCC-54C cells [3]; 0% O2, compound conc 10 μM): 1.01
D1 (radiation dose for 1% surviving fraction) (UT-SCC-54C cells [3]; 20% O2, compound conc 10 μM): 7.43 Gy
D10 (radiation dose for 10% surviving fraction) (UT-SCC-54C cells [3]; 20% O2, compound conc 10 μM): 4.96 Gy
SER1 (sensitiser enhancement ratio at 1% surviving fraction) (UT-SCC-54C cells [3]; 20% O2, compound conc 10 μM): 1.16
SER10 (sensitiser enhancement ratio at 10% surviving fraction) (UT-SCC-54C cells [3]; 20% O2, compound conc 10 μM): 1.13
Plating efficiency drug/no drug (UT-SCC-54C cells [3]; 20% O2, compound conc 10 μM): 1.57
SER (sensitiser enhancement ratio) (UT-SCC-54C cells [3]; UT-SCC-54C): 1.37
radiosensitisation of UT-SCC-54C cells under oxic conditions (UT-SCC-54C cells [3]): does not
IC50 (human mTOR; [9]): 30000 nM
IC50 (human mTOR; [10]): 30000 nM

COc1ccc(N(C(=O)OCc2cnc([N+](=O)[O-])n2C)c2cc3c(cn2)n(C)c(=O)n3C2CCOCC2)c(C)c1 [Compound 248, (1-Methyl-2-nitro-1H-imidazol-5-yl)methyl (4-methoxy-2-methylphenyl)(3-methyl-2-oxo-1-(tetrahydro-2H-pyran-4-yl)-2,3-dihydro-1H-imidazo[4,5-c]pyridin-6-yl)carbamate]
IC50 (human DNA-PK; [7]): 0.0185 µM and 0.14 µM
IC50 (human DNA-PK; [8]): 0.0185 µM
IC50 (human PI3Kα (p110α/p85α)): 107 µM and > 100 µM
IC50 (ATM): > 100 µM
IC50 (ATR/ATRIP): > 100 µM
IC50 (UT-SCC-54C cells [2]): > 10 µM
S50 (UT-SCC-54C cells [2]): >10 µM
radiosensitisation / differential growth inhibition of UT-SCC-54C cells (UT-SCC-54C cells [2]): did not display any differential growth inhibition
radiosensitisation / differential growth inhibition of HAP1 cells (HAP1 cells): did not demonstrate any differential growth inhibition
IC50 (HAP1 cells): > 10 µM
radiosensitisation / differential growth inhibition of DNA-PK null HAP1 line (HAP1/PRKDC−/− cells): did not demonstrate any differential growth inhibition
IC50 (HAP1/PRKDC−/− cells): > 10 µM
D1 (radiation dose for 1% surviving fraction) (UT-SCC-54C cells [3]; 0% O2, compound conc 1 μM): 13.8 Gy
D10 (radiation dose for 10% surviving fraction) (UT-SCC-54C cells [3]; 0% O2, compound conc 1 μM): 8.57 Gy
SER1 (sensitiser enhancement ratio at 1% surviving fraction) (UT-SCC-54C cells [3]; 0% O2, compound conc 1 μM): 1.71
SER10 (sensitiser enhancement ratio at 10% surviving fraction) (UT-SCC-54C cells [3]; 0% O2, compound conc 1 μM): 1.73
Plating efficiency drug/no drug (UT-SCC-54C cells [3]; 0% O2, compound conc 1 μM): 1.13
D1 (radiation dose for 1% surviving fraction) (UT-SCC-54C cells [3]; 20% O2, compound conc 1 μM): 9.34 Gy
D10 (radiation dose for 10% surviving fraction) (UT-SCC-54C cells [3]; 20% O2, compound conc 1 μM): 5.61 Gy
SER1 (sensitiser enhancement ratio at 1% surviving fraction) (UT-SCC-54C cells [3]; 20% O2, compound conc 1 μM): 1.04
SER10 (sensitiser enhancement ratio at 10% surviving fraction) (UT-SCC-54C cells [3]; 20% O2, compound conc 1 μM): 1.12
Plating efficiency drug/no drug (UT-SCC-54C cells [3]; 20% O2, compound conc 1 μM): 1.21
SER (sensitiser enhancement ratio) (UT-SCC-54C cells [3]; UT-SCC-54C): 1.82
radiosensitisation of UT-SCC-54C cells under oxic conditions (UT-SCC-54C cells [3]): does not
reduction in clonogens/gram of tumour, compound with radiation compared to radiation alone [4]: smaller, but significant (p=0.018) effect
reduction in clonogens/gram of tumour tissue, compound alone [4]: no reduction
metabolism of prodrug by UT-SCC-54C cells under anoxic conditions (release of 121) (UT-SCC-54C cells [6]; anoxic): selectively metabolised
metabolism of prodrug by UT-SCC-54C cells under oxic conditions (UT-SCC-54C cells [6]; oxic): not under oxic conditions
IC50 (human mTOR; [9]): ≥ 10000 nM
IC50 (human mTOR; [10]): > 100000 nM
IC50 (human mTOR; read-out: Inhibition of kinase activity (as IC50) mTOR, 10 μM ATP, mean of two replicates, Table 12): > 100000 nM
